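Five concentrations, 48 hours, 96-well plates. The concentration for 50% growth inhibition is given as GI50.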 Calls of active or inactive are those of the source. No stated cut-off is given here; in the data, active = GI50 up to about 1.1 µM and inactive = higher.
What was measured:
Assay in all cases: growth of human tumour cells (NCI), 48 h
[1] = system: A549
[2] = system: HCT-15
[3] = system: M14
[4] = system: SK-OV-3
[5] = system: SNB-19
[6] = system: MOLT-4
[7] = system: SK-MEL-5
[8] = system: OVCAR-8
[9] = system: CAKI-1
[10] = system: NCI-H226
[11] = system: HOP-62
[12] = system: NCI-H460
[13] = system: A498
[14] = system: MDA-MB-435
[15] = system: NCI-H23
[16] = system: SK-MEL-28
[17] = system: NCI/ADR-RES
[18] = system: RXF 393
[19] = system: DU-145
[20] = system: MDA-MB-231

Row | Structure (SMILES) | GI50 [1] | GI50 [2] | GI50 [3] | GI50 [4] | GI50 [5] | GI50 [6] | GI50 [7] | GI50 [8] | GI50 [9] | GI50 [10] | GI50 [11] | GI50 [12] | GI50 [13] | GI50 [14] | GI50 [15] | GI50 [16] | GI50 [17] | GI50 [18] | GI50 [19] | GI50 [20]
1 | CNC(=O)C1(C#N)C(c2ccccc2)C(C#N)(C(=O)NC)C1c1ccccc1 (centres undefined) | > 100 µM (inactive) | > 100 µM | > 100 µM (inactive) | > 100 µM (inactive) | 27.4 µM (inactive) | > 100 µM (inactive) | > 100 µM (inactive) | > 100 µM (inactive) | > 100 µM (inactive) | 98.9 µM (inactive) | > 100 µM (inactive) | > 100 µM (inactive) | > 100 µM (inactive) | > 100 µM (inactive) | > 100 µM (inactive) | > 100 µM (inactive) | > 100 µM (inactive) | – | – | –
2 | Nc1nncc2c1c(Br)cn2C1OC(CO)C(O)C1O (centres undefined) | 31.7 µM (inactive) | 4.23 µM | 23.9 µM (inactive) | > 96.6 µM (inactive) | 64.3 µM (inactive) | 2.91 µM (inactive) | > 100 µM (inactive) | 1.49 µM (inactive) | 3.21 µM (inactive) | > 100 µM (inactive) | 22 µM (inactive) | 28.8 µM (inactive) | > 67.6 µM (inactive) | – | 10.9 µM (inactive) | > 100 µM (inactive) | – | 30.8 µM (inactive) | – | –
3 | O=C(/C=C/c1ccccc1)NC1C=Nc2ccc([N+](=O)[O-])cc2NC1=O (centres undefined) | > 100 µM (inactive) | 23.2 µM | 52.8 µM (inactive) | > 100 µM (inactive) | > 100 µM (inactive) | 53.8 µM (inactive) | > 100 µM (inactive) | > 100 µM (inactive) | > 100 µM (inactive) | > 100 µM (inactive) | 84.3 µM (inactive) | > 100 µM (inactive) | > 100 µM (inactive) | – | 76.4 µM (inactive) | > 100 µM (inactive) | – | > 100 µM (inactive) | – | –
4 | O=C1/C(=C/c2ccc(Cl)cc2)CSC/C1=C\c1ccc(Cl)cc1 | 4.08 µM (inactive) | 13.9 µM | 1.84 µM (inactive) | 5.32 µM (inactive) | 4.84 µM (inactive) | 2.61 µM (inactive) | 3.45 µM (inactive) | 3.54 µM (inactive) | 4.06 µM (inactive) | 2.2 µM (inactive) | 4.74 µM (inactive) | 3.32 µM (inactive) | – | – | 2.9 µM (inactive) | 1.87 µM (inactive) | 6.27 µM (inactive) | 1.35 µM (inactive) | 5.87 µM (inactive) | 4.17 µM (inactive)
5 | N#Cc1nc(C2OC(COC(=O)c3ccccc3)C(OC(=O)c3ccccc3)C2OC(=O)c2ccccc2)oc1N (centres undefined) | 26.4 µM (inactive) | 16.7 µM | 89.7 µM (inactive) | > 100 µM (inactive) | > 100 µM (inactive) | 5.6 µM (inactive) | 14.5 µM (inactive) | 46.1 µM (inactive) | 26.5 µM (inactive) | 14.2 µM (inactive) | > 100 µM (inactive) | 76.4 µM (inactive) | > 100 µM (inactive) | – | 19.1 µM (inactive) | 31 µM (inactive) | – | 14.7 µM (inactive) | – | –
6 | CC(=O)c1ccc(NC(=O)C(=O)Nn2c(S)nc3ccccc3c2=O)cc1 | > 100 µM (inactive) | > 100 µM | > 100 µM (inactive) | > 100 µM (inactive) | > 100 µM (inactive) | > 100 µM (inactive) | > 100 µM (inactive) | > 100 µM (inactive) | > 100 µM (inactive) | > 100 µM (inactive) | > 100 µM (inactive) | > 100 µM (inactive) | > 100 µM (inactive) | – | > 100 µM (inactive) | > 100 µM (inactive) | – | > 100 µM (inactive) | – | –
7 | C=C=C(Sc1ccccc1)C(C)(C)O | – | > 100 µM | > 100 µM (inactive) | > 100 µM (inactive) | > 100 µM (inactive) | > 100 µM (inactive) | – | > 100 µM (inactive) | – | > 100 µM (inactive) | – | > 100 µM (inactive) | > 100 µM (inactive) | – | > 100 µM (inactive) | > 100 µM (inactive) | – | > 100 µM (inactive) | > 100 µM (inactive) | –
8 | C=C[C@]1(C)CCC2=C(CCC3C2(C)CCC[C@]3(C)CO)C1 (some centres undefined) | 40.6 µM (inactive) | 33 µM | 75.5 µM (inactive) | > 100 µM (inactive) | > 100 µM (inactive) | 24.3 µM (inactive) | 67.1 µM (inactive) | 60.5 µM (inactive) | 76 µM (inactive) | 41.2 µM (inactive) | > 100 µM (inactive) | 35.1 µM (inactive) | > 100 µM (inactive) | – | 50.4 µM (inactive) | > 100 µM (inactive) | – | 25.8 µM (inactive) | – | –
9 | CC(C)(C)N/N=C(\C(=O)NC1=C(Cl)C(=O)c2ccccc2C1=O)C1C=CCS1(=O)=O (centres undefined) | 16.9 µM (inactive) | 7.06 µM | 11.5 µM (inactive) | > 100 µM (inactive) | > 100 µM (inactive) | 66.7 µM (inactive) | – | 19.8 µM (inactive) | 18.4 µM (inactive) | 12.6 µM (inactive) | – | 6.84 µM (inactive) | 21.2 µM (inactive) | – | 8.15 µM (inactive) | > 100 µM (inactive) | 22 µM (inactive) | – | 11.1 µM (inactive) | 14.6 µM (inactive)
10 | O=C(CCCCCCCCC(=O)OCC1OC(n2cnc3c(=O)[nH]cnc32)C(O)C1O)OCC1OC(n2cnc3c(=O)[nH]cnc32)C(O)C1O (centres undefined) | > 100 µM (inactive) | > 100 µM | > 100 µM (inactive) | > 100 µM (inactive) | > 100 µM (inactive) | > 100 µM (inactive) | > 100 µM (inactive) | > 100 µM (inactive) | > 100 µM (inactive) | > 100 µM (inactive) | > 100 µM (inactive) | > 100 µM (inactive) | > 100 µM (inactive) | – | > 100 µM (inactive) | > 100 µM (inactive) | – | > 100 µM (inactive) | – | –
11 | Cc1c(Cl)cccc1NC(=O)/C(Cl)=C(\Cl)C(=O)O | 19.5 µM (inactive) | 16.4 µM | 16.1 µM (inactive) | 18.9 µM (inactive) | 44.8 µM (inactive) | 7.43 µM (inactive) | 20.5 µM (inactive) | – | 17.3 µM (inactive) | 20.7 µM (inactive) | 31.8 µM (inactive) | > 100 µM (inactive) | 45.1 µM (inactive) | – | 19.5 µM (inactive) | 20.5 µM (inactive) | – | 19.9 µM (inactive) | – | –
12 | COC(=O)C(Cc1ccccc1)NC(=O)Cn1ccnc1[N+](=O)[O-] (centres undefined) | > 100 µM (inactive) | > 100 µM | > 100 µM (inactive) | > 100 µM (inactive) | > 100 µM (inactive) | > 100 µM (inactive) | 96.6 µM (inactive) | > 100 µM (inactive) | > 100 µM (inactive) | 34 µM (inactive) | > 100 µM (inactive) | > 100 µM (inactive) | > 100 µM (inactive) | – | > 100 µM (inactive) | > 100 µM (inactive) | – | > 100 µM (inactive) | – | –
13 | Cc1ccc(C2=Nc3ccccc3[S+]([O-])C(c3ccc4c(c3)OCO4)C2)cc1 (centres undefined) | 28.6 µM (inactive) | – | 17.6 µM (inactive) | 42.6 µM (inactive) | 58.7 µM (inactive) | 23.9 µM (inactive) | 15 µM (inactive) | 20.5 µM (inactive) | 24.5 µM (inactive) | 52.6 µM (inactive) | 39.4 µM (inactive) | > 10 µM (inactive) | 18.2 µM (inactive) | – | 15.3 µM (inactive) | 24.5 µM (inactive) | – | 16.9 µM (inactive) | – | –
14 | N#CCc1ccc(C(C#N)/C(CCCC(=O)Nc2cccc([N+](=O)[O-])c2)=N\NC(=O)NN)cc1 (centres undefined) | > 100 µM (inactive) | > 100 µM | > 100 µM (inactive) | > 100 µM (inactive) | > 100 µM (inactive) | > 100 µM (inactive) | > 100 µM (inactive) | > 100 µM (inactive) | > 100 µM (inactive) | > 100 µM (inactive) | > 100 µM (inactive) | > 100 µM (inactive) | > 100 µM (inactive) | – | > 100 µM (inactive) | > 100 µM (inactive) | – | > 100 µM (inactive) | – | –
15 | O=C(/C=C\c1ccccc1O)c1ccc(O)cc1O | > 100 µM (inactive) | > 100 µM | > 100 µM (inactive) | > 100 µM (inactive) | > 100 µM (inactive) | > 100 µM (inactive) | > 100 µM (inactive) | > 100 µM (inactive) | > 100 µM (inactive) | > 100 µM (inactive) | > 100 µM (inactive) | > 100 µM (inactive) | > 100 µM (inactive) | – | > 100 µM (inactive) | > 100 µM (inactive) | – | > 100 µM (inactive) | – | –
16 | C/C(CC(=O)NC1=CC=C(NC(=O)C/C(C)=N\Nc2ccccc2)CC1)=N/Nc1ccccc1 | > 100 µM (inactive) | 29.7 µM | > 100 µM (inactive) | > 100 µM (inactive) | > 100 µM (inactive) | > 100 µM (inactive) | > 100 µM (inactive) | > 100 µM (inactive) | > 100 µM (inactive) | > 100 µM (inactive) | > 100 µM (inactive) | > 100 µM (inactive) | > 100 µM (inactive) | – | > 100 µM (inactive) | > 100 µM (inactive) | – | > 100 µM (inactive) | – | –
17 | CN(C)c1n/c(=N/c2ccc3ccccc3c2)ss1 | 12.2 µM (inactive) | 17.3 µM | 24 µM (inactive) | 77.1 µM (inactive) | 32 µM (inactive) | 4.45 µM (inactive) | 11.1 µM (inactive) | 19.5 µM (inactive) | 5.87 µM (inactive) | 13.4 µM (inactive) | 41.8 µM (inactive) | 5.75 µM (inactive) | 30.6 µM (inactive) | – | – | 34.8 µM (inactive) | – | 41.9 µM (inactive) | – | –
